Patent US9302999B2, “Substituted triazoles as herbicides” (E. I. DU PONT DE NEMOURS AND COMPANY, priority 2012, dated 2016)

Columns and labels:
Assay type in all cases: in vivo
[1] = system: bluegrass (annual bluegrass, Poa annua); assay: Test D pre-/postemergence: bluegrass
Text: (§1) Seeds of plant species selected from bluegrass (annual bluegrass, Poa annua), blackgrass (Alopecurus myosuroides), canarygrass (Phalaris minor), chickweed (common chickweed, Stellaria media), galium (catchweed bedstraw, Galium aparine), bromegrass, downy (downy bromegrass, Bromus tectorum), field poppy (Papaver rhoeas), field violet (Viola arvensis), foxtail, green (green foxtail, Setaria viridis), deadnettle (henbit deadnettle, Lamium amplexicaule), ryegrass, Italian (Italian ryegrass, Lolium multiflorum), kochia (Kochia scoparia), lambsquarters (Chenopodium album), oilseed rape (Brassica napus), pigweed (Amaranthus retroflexus), Russian thistle (Salsola iberica), chamomile (scentless chamomile, Matricaria inodora), speedwell (bird's-eye speedwell, Veronica persica), barley, spring (spring barley, Hordeum vulgare), wheat, spring (spring wheat, Triticum aestivum), buckwheat, wild (wild buckwheat, Polygonum convolvulus), mustard, wild (wild mustard, Sinapis arvensis), oat, wild (wild oat, Avena fatua), radish, wild (wild radish, Raphanus raphanistrum), windgrass (Apera spica-venti), barley, winter (winter barley, Hordeum vulgare), and wheat, winter (winter wheat, Triticum aestivum) were planted into a silt loam soil and treated preemergence with test chemicals formulated in a non-phytotoxic solvent mixture which included a surfactant. At the same time, these same crop and weed species were planted in pots containing the planting medium comprising spaghnum peat moss, vermiculite, wetting agent and starter nutrients and treated with postemergence applications of the test chemicals formulated in the same manner. Plants ranged in height from 2 to 18 cm (1- to 4-leaf stage).
(§2) Treated plants and controls were maintained in a controlled growth environment for 14 to 21 days after which time all species were compared to controls and visually evaluated. Plant response ratings, summarized in Table D, are based on a scale of 0 to 100 where 0 is no effect and 100 is complete control. A dash (-) response means no test result.

[2] = system: buckwheat, wild (wild buckwheat, Polygonum convolvulus); assay: Test D pre-/postemergence: buckwheat, wild
Text: as §1, §2

[3] = system: wheat, winter (winter wheat, Triticum aestivum); assay: Test D pre-/postemergence: wheat, winter
Text: as §1, §2

[4] = Postemergence, 31 g ai/ha, scale 0 to 100 (0 no effect, 100 complete control)
[5] = Postemergence, 62 g ai/ha, scale 0 to 100 (0 no effect, 100 complete control)
[6] = Postemergence, 125 g ai/ha, scale 0 to 100, 0 no effect, 100 complete control
[7] = Postemergence, 250 g ai/ha, scale 0 to 100 (0 no effect, 100 complete control)
[8] = Preemergence, 31 g ai/ha, scale 0 to 100, 0 no effect, 100 complete control
[9] = Preemergence, 62 g ai/ha, scale 0 to 100
[10] = Preemergence, 125 g ai/ha, scale 0 to 100
[11] = Preemergence, 250 g ai/ha, scale 0 to 100
[12] = Postemergence, 16 g ai/ha, scale 0 to 100
[13] = Preemergence, 16 g ai/ha, scale 0 to 100, 0 no effect, 100 complete control

| Structure (SMILES) | Plant response rating: Bluegrass [1, 4] | Plant response rating: Bluegrass [1, 5] | Plant response rating: Bluegrass [1, 6] | Plant response rating: Bluegrass [1, 7] | Plant response rating, Bluegrass [1, 9] | Plant response rating, Bluegrass [1, 10] | Plant response rating: Buckwheat, Wild [2, 4] | Plant response rating: Buckwheat, Wild [2, 5] | Plant response rating: Buckwheat, Wild [2, 6] | Plant response rating: Buckwheat, Wild [2, 7] | Plant response rating, Buckwheat, Wild [2, 9] | Plant response rating, Buckwheat, Wild [2, 10] | Plant response rating: Wheat, Winter [3, 4] | Plant response rating: Wheat, Winter [3, 5] | Plant response rating: Wheat, Winter [3, 6] | Plant response rating: Wheat, Winter [3, 7] | Plant response rating, Wheat, Winter [3, 8] | Plant response rating, Bluegrass [1, 12] | Plant response rating, Buckwheat, Wild [2, 12] | Plant response rating, Wheat, Winter [3, 12] | also measured |
| --- | --- | --- | --- | --- | --- | --- | --- | --- | --- | --- | --- | --- | --- | --- | --- | --- | --- | --- | --- | --- | --- |
| FC(F)(F)COc1nn(-c2ccc(C(F)(F)F)cc2)nc1Cc1ccnc(C(F)(F)F)c1 [Compound 14, 4-[[5-(2,2,2-trifluoroethoxy)-2-[4-(trifluoromethyl)phenyl]-2H-1,2,3-triazol-4-yl]methyl]-2-(trifluoromethyl)pyridine] | 20 | 35 | 70 | 95 | 30 | 85 | 0 | 40 | 60 | 100 | 30 | 35 | 5 | 5 | 15 | 25 | 0 | – | – | – | Plant response rating, Bluegrass [1, 8]: 0; Plant response rating, Bluegrass [1, 11]: 100; Plant response rating, Buckwheat, Wild [2, 8]: 0; Plant response rating, Buckwheat, Wild [2, 11]: 40; Plant response rating, Wheat, Winter [3, 9]: 0; Plant response rating, Wheat, Winter [3, 10]: 10; Plant response rating, Wheat, Winter [3, 11]: 20 |
| COc1nn(-c2ccc(C(F)(F)F)cc2)nc1Cc1ccnc(C(F)(F)F)c1 [Compound 15, 4-[[5-methoxy-2-[4-(trifluoromethyl)phenyl]-2H-1,2,3-triazol-4-yl]methyl]-2-(trifluoromethyl)pyridine] | 10 | 25 | 50 | 95 | 5 | 80 | 30 | 30 | 70 | 100 | 100 | 100 | 10 | 15 | 25 | 35 | 0 | 0 | 0 | 5 | Plant response rating, Bluegrass [1, 8]: 0; Plant response rating, Bluegrass [1, 11]: 100; Plant response rating, Buckwheat, Wild [2, 8]: 0; Plant response rating, Buckwheat, Wild [2, 11]: 100; Plant response rating, Wheat, Winter [3, 9]: 0; Plant response rating, Wheat, Winter [3, 10]: 0; Plant response rating, Wheat, Winter [3, 11]: 5 |
| Cc1nn(-c2ccc(C(F)(F)F)cn2)nc1Oc1ccnc(C(F)(F)F)c1 [Compound 23] | 20 | 25 | 30 | 40 | – | – | 25 | 35 | 40 | 75 | – | – | 5 | 10 | 15 | 15 | – | 20 | 20 | 0 | – |
| Cc1nn(-c2ccc(C(F)(F)F)cn2)nc1Cc1cccc(C(F)(F)F)c1 [Compound 106] | 10 | 10 | 15 | 30 | 0 | 0 | 0 | 10 | 10 | 100 | 100 | 100 | 5 | 5 | 5 | 5 | 0 | 10 | 0 | 5 | Plant response rating, Bluegrass [1, 11]: 0; Plant response rating, Buckwheat, Wild [2, 8]: 50; Plant response rating, Buckwheat, Wild [2, 11]: 100; Plant response rating, Wheat, Winter [3, 9]: 0; Plant response rating, Wheat, Winter [3, 10]: 0; Plant response rating, Wheat, Winter [3, 11]: 0 |
| Cc1nn(-c2ccc(C(F)(F)F)cc2)nc1Oc1ccnc(C(F)(F)F)c1 [Compound 120] | 10 | 40 | 70 | 95 | 100 | 100 | 75 | 85 | 95 | 98 | 10 | 70 | 5 | 10 | 15 | 20 | 0 | 10 | 50 | 5 | Plant response rating, Bluegrass [1, 13]: 0; Plant response rating, Bluegrass [1, 8]: 100; Plant response rating, Bluegrass [1, 11]: 100; Plant response rating, Buckwheat, Wild [2, 11]: 100; Plant response rating, Wheat, Winter [3, 13]: 0; Plant response rating, Wheat, Winter [3, 9]: 5; Plant response rating, Wheat, Winter [3, 10]: 5; Plant response rating, Wheat, Winter [3, 11]: 10 |
| COc1nn(-c2ccc(C(F)(F)F)cc2)nc1Cc1ccnc(C(F)F)c1 [Compound 138] | 30 | 50 | 70 | 85 | – | – | 40 | 50 | 80 | 80 | – | – | 20 | 20 | 20 | 25 | – | 20 | 40 | 10 | – |
| Cc1nn(-c2ccc(F)c(C(F)(F)F)c2)nc1Cc1ccnc(C(F)(F)F)c1 [Compound 156] | 65 | 70 | 80 | – | 40 | 100 | 75 | 80 | 85 | – | 65 | 100 | 15 | 15 | 20 | – | 0 | 15 | 70 | 10 | Plant response rating, Bluegrass [1, 13]: 5; Plant response rating, Bluegrass [1, 8]: 5; Plant response rating, Buckwheat, Wild [2, 13]: 0; Plant response rating, Buckwheat, Wild [2, 8]: 50; Plant response rating, Wheat, Winter [3, 13]: 0; Plant response rating, Wheat, Winter [3, 9]: 0; Plant response rating, Wheat, Winter [3, 10]: 5 |
